Patent publication US11813239B2, “Compositions and methods for improving cardiac structure and/or function” (Wisconsin Alumni Research Foundation, priority 2020, dated 2023)

System: adult mouse heart following myocardial infarction
Test: Echocardiography after adult MI, malonate treatment starting 1-week post-MI
Conditions: for % EF (Ejection Fraction) / % FS (Fractional Shortening) / LV Mass (Left Ventricular Mass, Anatomical Weight) / LV Vol; d (Left Ventricular Volume; diastole) / LV Vol; s (Left Ventricular Volume; systole) / LVAWD (Left Ventricle Anterior Wall Thickness Diastole) / LVAWS (Left Ventricle Anterior Wall Thickness Systole) / LVIDD (Left Ventricle Internal Diameter Diastole) / LVIDS (Left Ventricle Internal Diameter Systole) / LVPWD (Left Ventricle Posterior Wall Thickness Diastole) / LVPWS (Left Ventricle Posterior Wall Thickness Systole): adult mice, mean ± SE
[1] = MI, 2 WPMI, dimethyl malonate 100 mg/kg daily for 4 weeks starting 1 WPMI
[2] = MI, 3 WPMI, dimethyl malonate 100 mg/kg daily for 4 weeks starting 1 WPMI
[3] = MI, 4 WPMI, dimethyl malonate 100 mg/kg daily for 4 weeks starting 1 WPMI
[4] = MI, 6 WPMI, dimethyl malonate 100 mg/kg daily for 4 weeks starting 1 WPMI
[5] = malonate group, MI, 1 WPMI (before start of dosing)
[6] = malonate group, Pre (before MI and dosing)

Description: Adult male mice (8-week-old) were subjected to MI by ligation of the proximal aspect of the LAD coronary artery. In brief, mice were anaesthetized using 3% isoflurane, then mice were intubated with PE50 tubing and placed on a mouse ventilator at 120-130 breaths per minute with a stroke volume of 150 microliters and maintained on 2% isoflurane. A left lateral incision through the fourth intercostal space was made to expose the heart. After visualizing the left coronary artery, 7-0 suture was placed through the myocardium in the anterolateral wall and secured as previously describer^17,18. Coronary artery entrapment was confirmed by observing blanching of the distal circulation (ventricular apex). ECG was used to confirm MI by noting ST segment changes. The lungs were over inflated, and the ribs and muscle layers were closed by absorbable sutures. The skin is closed by additional suturing using 6-0 nylon. The mouse was recovered from the anesthesia and extubated.
Saline was used as a vehicle control for all experiments. […] Adult mice were injected intraperitoneally daily with either saline or 100 mg/kg dimethyl malonate post-MI for 2 or 4 weeks.
Transthoracic echocardiography was performed by using a Visual Sonics 770 ultrasonograph with a 25-MHz transducer (Visual Sonics, Toronto) as described previously^19. Mice were lightly anesthetized with 1% isoflurane and maintained on a heated platform. Two-dimensionally guided M-mode images from a parasternal long axis (PLAX) of the left ventricle (LV) were acquired at the tip of the papillary muscles. Wall thickness and chamber diameters were measured in both diastole and systole. Fractional shortening was calculated as (LVDd−LVDs)/LVDd×100, where LVDd is LV diameter in diastole and LVDs is LV diameter in systole. Ejection fraction was calculated as [(7.0/(2.4+LVDd)(LVDd)^3−(7.0/(2.4+LVDs)(LVDs)^3/(7.0/(2.4+LVDd)(LVDd)^3×100 and LV mass was calculated by using the formula [1.05×((Posterior Walldiastole+Anterior Walldiastole+LVDd)^3−(LVDd)^3)]. All parameters were measured over at least three consecutive cycles.
To determine whether SDH inhibitors can promote a regenerative response following the establishment of infarction, we performed MI in 8-week-old mice and started malonate treatment at 1-week post-MI (FIG. 20A). […] Mice were then randomized and treated with saline or malonate for a period of 4 weeks, and hearts were harvested at 6 weeks post-MI (FIG. 20A).

COC(=O)CC(=O)OC [Malonate, dimethyl malonate]
cardiac function by echocardiography (adult MI, malonate for 4 weeks starting 1-week post-MI, 4-weeks and 6-weeks post-MI): significant increase in cardiac function
% EF (Ejection Fraction) [1]: 34.537 ± 4.592%
% FS (Fractional Shortening) [1]: 16.507 ± 2.337%
LV Mass (Left Ventricular Mass, Anatomical Weight) [1]: 118.559 ± 20.724 mg
LV Vol; d (Left Ventricular Volume; diastole) [1]: 97.776 ± 23.854 µL
LV Vol; s (Left Ventricular Volume; systole) [1]: 69.099 ± 20.899 µL
LVAWD (Left Ventricle Anterior Wall Thickness Diastole) [1]: 0.698 ± 0.021 mm
LVAWS (Left Ventricle Anterior Wall Thickness Systole) [1]: 0.833 ± 0.016 mm
LVIDD (Left Ventricle Internal Diameter Diastole) [1]: 4.458 ± 0.467 mm
LVIDS (Left Ventricle Internal Diameter Systole) [1]: 3.772 ± 0.497 mm
LVPWD (Left Ventricle Posterior Wall Thickness Diastole) [1]: 0.671 ± 0.023 mm
LVPWS (Left Ventricle Posterior Wall Thickness Systole) [1]: 0.814 ± 0.012 mm
% EF (Ejection Fraction) [2]: 38.518 ± 3.865%
% FS (Fractional Shortening) [2]: 18.642 ± 2.058%
LV Mass (Left Ventricular Mass, Anatomical Weight) [2]: 90.090 ± 11.827 mg
LV Vol; d (Left Ventricular Volume; diastole) [2]: 78.984 ± 13.627 µL
LV Vol; s (Left Ventricular Volume; systole) [2]: 50.781 ± 11.724 µL
LVAWD (Left Ventricle Anterior Wall Thickness Diastole) [2]: 0.623 ± 0.024 mm
LVAWS (Left Ventricle Anterior Wall Thickness Systole) [2]: 0.791 ± 0.028 mm
LVIDD (Left Ventricle Internal Diameter Diastole) [2]: 4.139 ± 0.296 mm
LVIDS (Left Ventricle Internal Diameter Systole) [2]: 3.393 ± 0.326 mm
LVPWD (Left Ventricle Posterior Wall Thickness Diastole) [2]: 0.613 ± 0.017 mm
LVPWS (Left Ventricle Posterior Wall Thickness Systole) [2]: 0.764 ± 0.018 mm
% EF (Ejection Fraction) [3]: 45.375 ± 5.597%
% FS (Fractional Shortening) [3]: 24.529 ± 3.624%
LV Mass (Left Ventricular Mass, Anatomical Weight) [3]: 90.726 ± 13.717 mg
LV Vol; d (Left Ventricular Volume; diastole) [3]: 70.697 ± 15.089 µL
LV Vol; s (Left Ventricular Volume; systole) [3]: 47.342 ± 10.954 µL
LVAWD (Left Ventricle Anterior Wall Thickness Diastole) [3]: 0.687 ± 0.039 mm
LVAWS (Left Ventricle Anterior Wall Thickness Systole) [3]: 0.809 ± 0.051 mm
LVIDD (Left Ventricle Internal Diameter Diastole) [3]: 4.136 ± 0.349 mm
LVIDS (Left Ventricle Internal Diameter Systole) [3]: 2.958 ± 0.419 mm
LVPWD (Left Ventricle Posterior Wall Thickness Diastole) [3]: 0.962 ± 0.287 mm
LVPWS (Left Ventricle Posterior Wall Thickness Systole) [3]: 1.015 ± 0.214 mm
% EF (Ejection Fraction) [4]: 47.208 ± 4.087%
% FS (Fractional Shortening) [4]: 23.535 ± 2.509%
LV Mass (Left Ventricular Mass, Anatomical Weight) [4]: 107.845 ± 11.076 mg
LV Vol; d (Left Ventricular Volume; diastole) [4]: 75.865 ± 9.652 µL
LV Vol; s (Left Ventricular Volume; systole) [4]: 40.253 ± 6.696 µL
LVAWD (Left Ventricle Anterior Wall Thickness Diastole) [4]: 0.718 ± 0.011 mm
LVAWS (Left Ventricle Anterior Wall Thickness Systole) [4]: 0.831 ± 0.019 mm
LVIDD (Left Ventricle Internal Diameter Diastole) [4]: 4.113 ± 0.228 mm
LVIDS (Left Ventricle Internal Diameter Systole) [4]: 3.146 ± 0.214 mm
LVPWD (Left Ventricle Posterior Wall Thickness Diastole) [4]: 0.738 ± 0.018 mm
LVPWS (Left Ventricle Posterior Wall Thickness Systole) [4]: 0.846 ± 0.017 mm
% EF (Ejection Fraction) [5]: 35.760 ± 3.523%
% FS (Fractional Shortening) [5]: 17.077 ± 1.873%
LV Mass (Left Ventricular Mass, Anatomical Weight) [5]: 105.118 ± 13.726 mg
LV Vol; d (Left Ventricular Volume; diastole) [5]: 87.566 ± 16.492 µL
LV Vol; s (Left Ventricular Volume; systole) [5]: 57.371 ± 11.845 µL
LVAWD (Left Ventricle Anterior Wall Thickness Diastole) [5]: 0.651 ± 0.018 mm
LVAWS (Left Ventricle Anterior Wall Thickness Systole) [5]: 0.788 ± 0.016 mm
LVIDD (Left Ventricle Internal Diameter Diastole) [5]: 4.329 ± 0.343 mm
LVIDS (Left Ventricle Internal Diameter Systole) [5]: 3.603 ± 0.326 mm
LVPWD (Left Ventricle Posterior Wall Thickness Diastole) [5]: 0.665 ± 0.033 mm
LVPWS (Left Ventricle Posterior Wall Thickness Systole) [5]: 0.838 ± 0.025 mm
% EF (Ejection Fraction) [6]: 69.832 ± 3.238%
% FS (Fractional Shortening) [6]: 38.447 ± 2.452%
LV Mass (Left Ventricular Mass, Anatomical Weight) [6]: 59.124 ± 6.101 mg
LV Vol; d (Left Ventricular Volume; diastole) [6]: 32.452 ± 4.967 µL
LV Vol; s (Left Ventricular Volume; systole) [6]: 10.208 ± 2.260 µL
LVAWD (Left Ventricle Anterior Wall Thickness Diastole) [6]: 0.704 ± 0.023 mm
LVAWS (Left Ventricle Anterior Wall Thickness Systole) [6]: 0.838 ± 0.024 mm
LVIDD (Left Ventricle Internal Diameter Diastole) [6]: 2.872 ± 0.174 mm
LVIDS (Left Ventricle Internal Diameter Systole) [6]: 1.779 ± 0.158 mm
LVPWD (Left Ventricle Posterior Wall Thickness Diastole) [6]: 0.717 ± 0.020 mm
LVPWS (Left Ventricle Posterior Wall Thickness Systole) [6]: 0.829 ± 0.017 mm
